Patent US7932262B2 (Novartis AG, priority 2006, dated 2011)
Where two headings read alike, the source gives them in different places.

Legend:
[1] = system: PC-3 cells; experiment: Cell Proliferation Assay (Cell Titer Glo), PC-3 cell line; type: cell-based; conditions: Homo sapiens
Procedure, shortened: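 PC-3 cells, 1000 cells/well, left to adhere 3-5 h, then exposed for 3 days at 37° C to compounds as 1:3 serial dilutions from 500× DMSO stocks diluted in growth medium. Medium then replaced with fresh medium and viability read by Cell Titer Glo luminescence.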

[2] = molecular target: T1, PDK1 kinase (Homo sapiens, UniProt O15530); experiment: PDK1 Kinase Alpha Screen Assay; type: biochemical; conditions: read-out: PDK1 IC50
T1 sequence (O15530 1-556): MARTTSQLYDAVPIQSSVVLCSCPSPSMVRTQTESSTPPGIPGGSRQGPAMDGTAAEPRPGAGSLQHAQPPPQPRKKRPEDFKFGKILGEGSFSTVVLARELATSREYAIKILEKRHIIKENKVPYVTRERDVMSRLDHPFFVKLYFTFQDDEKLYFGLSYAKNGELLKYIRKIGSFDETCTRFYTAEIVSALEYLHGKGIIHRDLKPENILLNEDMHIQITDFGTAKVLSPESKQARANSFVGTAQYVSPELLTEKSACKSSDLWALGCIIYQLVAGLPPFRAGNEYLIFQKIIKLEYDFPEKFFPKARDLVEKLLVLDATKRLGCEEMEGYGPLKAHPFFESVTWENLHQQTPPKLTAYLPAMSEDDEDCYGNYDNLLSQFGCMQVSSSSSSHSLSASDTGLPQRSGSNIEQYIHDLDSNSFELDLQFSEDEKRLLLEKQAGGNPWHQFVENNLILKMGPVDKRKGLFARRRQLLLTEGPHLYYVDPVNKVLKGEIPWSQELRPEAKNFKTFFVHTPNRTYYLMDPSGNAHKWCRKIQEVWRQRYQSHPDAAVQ
Procedure, shortened: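 Compound in DMSO added to PDK1-4 peptide; PDK1/ATP mix starts reaction (final 50 nM peptide, 10 uM ATP). Runs 3-18 hours, stopped with 90 mM EDTA buffer. Antibody/bead mix added, developed overnight at room temperature, then AlphaScreen signal read.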

[3] = PC-3, Cell Proliferation Assay, PC3, read-out: CPEC50 PC3
[4] = PC-3, PC3 cells, read-out: CPEC50 PC3

SMILES: CN1CCN(c2ccc(-c3cccc4cnc(Nc5ccc(C(F)(F)F)nc5)nc34)cn2)CC1 [Compound 436, 8-(6-(4-methylpiperazin-1-yl)pyridin-3-yl)-N-(6-(trifluoromethyl)pyridine-3-yl)quinazolin-2-amine]
- EC50 [1, 3]: < 5 µM
- IC50 ([2]; PDK1 Kinase Alpha Screen Assay): < 5 µM

SMILES: Fc1cc(Nc2ncc3c(Cl)ccc(OC4CNC4)c3n2)ccc1N1CCOCC1 [Compound 610, 8-(azetidin-3-yloxy)-5-chloro-N-(3-fluoro-4-morpholinophenyl)quinazolin-2-amine]
- EC50 [1, 3]: 5 to 10 µM
- IC50 ([2]; PDK1 Kinase Alpha Screen Assay): < 5 µM

SMILES: CC(=O)N1CCC(Oc2cccc3cnc(Nc4ccc(S(N)(=O)=O)cc4)nc23)CC1 [Compound 539, 4-(8-(1-acetylpiperidin-4-yloxy)quinazolin-2-ylamino)benzenesulfonamide]
- EC50 [1, 3]: < 5 µM
- IC50 ([2]; PDK1 Kinase Alpha Screen Assay): < 5 µM

SMILES: O=S(=O)(c1ccc(Nc2ncc3ccc(OC4CCN(CC(F)F)CC4)cc3n2)cc1)N1CCOCC1 [Compound 334, 7-(1-(2,2-difluoroethyl)piperidin-4-yloxy)-N-(4-(morpholinosulfonyl)phenyl)quinazolin-2-amine]
- EC50 [1, 3]: 5 to 10 µM
- IC50 ([2]; PDK1 Kinase Alpha Screen Assay): < 5 µM

SMILES: CN1CCC(NC(=O)c2cncc(-c3cccc4cnc(Nc5ccc(S(N)(=O)=O)cc5)nc34)c2)CC1 [Compound 981, N-(1-methylpiperidin-4-yl)-5-(2-(4-sulfamoylphenylamino)quinazolin-8-yl)nicotinamide]
- EC50 [1, 4]: 5 to 10 µM
- IC50 [2]: < 5 µM

SMILES: NS(=O)(=O)c1ccc(Nc2ncc3cccc(-c4cncc(C(=O)O)c4)c3n2)cc1 [Compound 962, 5-(2-(4-sulfamoylphenylamino)quinazolin-8-yl)nicotinic acid]
- EC50 [1, 4]: 5 to 10 µM
- IC50 [2]: 5 to 10 µM

SMILES: CC(C)NC(=O)c1ccc(Nc2ncc3cccc(OC4CCNCC4)c3n2)cc1Cl [Compound 482, 2-chloro-N-isopropyl-4-(8-(piperidin-4-yloxy)quinazolin-2-ylamino)benzamide]
- EC50 [1, 3]: < 5 µM
- IC50 ([2]; PDK1 Kinase Alpha Screen Assay): < 5 µM

SMILES: Nc1cc(C(F)(F)F)c(-c2ccc3cnc(Nc4ccc(S(N)(=O)=O)cc4)nc3c2OC2CCNCC2)cn1 [Compound 69, 4-[7-(6-Amino-4-trifluoromethyl-pyridin-3-yl)-8-(piperidin-4-yloxy)-quinazolin-2-ylamino]-benzenesulfonamide]
- EC50 ([1]; PC-3, 72 h, PC-3 cells, 3 days incubation, read-out: CP EC50 PC3): 5 to 10 µM
- IC50 [2]: < 5 µM

SMILES: Cc1cc(Nc2ncc3ccc(OC4CCN(C(C)C)CC4)cc3n2)ccc1F [Compound 327, N-(4-fluoro-3-methylphenyl)-7-(1-isopropyl-piperidin-4-yloxy)-quinazolin-2-amine]
- EC50 [1, 3]: 5 to 10 µM
- IC50 ([2]; PDK1 Kinase Alpha Screen Assay): < 5 µM

SMILES: CN1CCN(c2ccc(-c3cccc4cnc(Nc5ccc(N6CCOCC6)nc5)nc34)cn2)CC1 [Compound 423, 8-(6-(4-methylpiperazin-1-yl)pyridin-3-yl)-N-(6-morpholinopyridin-3-yl)quinazolin-2-amine]
- EC50 [1, 3]: < 5 µM
- IC50 ([2]; PDK1 Kinase Alpha Screen Assay): < 5 µM

SMILES: CS(=O)(=O)N1CCC(Oc2cccc3cnc(Nc4ccc(S(N)(=O)=O)cc4)nc23)CC1 [Compound 540, 4-(8-(1-(methylsulfonyl)piperidin-4-yloxy)quinazolin-2-ylamino)benzenesulfonamide]
- EC50 [1, 3]: < 5 µM
- IC50 ([2]; PDK1 Kinase Alpha Screen Assay): < 5 µM

SMILES: CC(C)N1CCC(Oc2ccc3cnc(Nc4ccc(OC(F)(F)F)cc4)nc3c2)CC1 [Compound 319, 7-(1-isopropylpiperidin-4-yloxy)-N-(4-(trifluoromethoxy)phenyl)quinazolin-2-amine]
- EC50 [1, 3]: < 5 µM
- IC50 ([2]; PDK1 Kinase Alpha Screen Assay): < 5 µM

SMILES: Clc1ccc(OC2CCNCC2)c2nc(Nc3cccc(-c4cc[nH]n4)c3)ncc12 [Compound 617, N-(3-(1H-pyrazol-3-yl)phenyl)-5-chloro-8-(piperidin-4-yloxy)quinazolin-2-amine]
- EC50 [1, 3]: 5 to 10 µM
- IC50 ([2]; PDK1 Kinase Alpha Screen Assay): < 5 µM

SMILES: O=C(c1ccc(Nc2ncc3c(Cl)ccc(OC4CCNCC4)c3n2)cc1Cl)N1CCOCC1 [Compound 692, (2-chloro-4-(5-chloro-8-(piperidin-4-yloxy)quinazolin-2-ylamino)phenyl) (morpholino)methanone]
- EC50 [1, 3]: < 5 µM
- IC50 ([2]; PDK1 Kinase Alpha Screen Assay): < 5 µM

SMILES: CC(C)NC(=O)c1ccc(Nc2ncc3ccc(OC4CCNCC4)cc3n2)cc1 [Compound 590, N-isopropyl-4-(7-(piperidin-4-yloxy)quinazolin-2-ylamino)benzamide]
- EC50 [1, 3]: < 5 µM
- IC50 ([2]; PDK1 Kinase Alpha Screen Assay): < 5 µM

SMILES: O=C(c1ccc(Nc2ncc3c(Cl)ccc(OC4CCNCC4)c3n2)cc1F)N1CCOCC1 [Compound 378, (4-(5-chloro-8-(piperidin-4-yloxy)quinazolin-2-ylamino)-2-fluorophenyl)(morpholino)methanone]
- EC50 [1, 3]: < 5 µM
- IC50 ([2]; PDK1 Kinase Alpha Screen Assay): < 5 µM

SMILES: Cc1ccc(OC2CCNCC2)c2nc(Nc3ccc(N4CCOCC4)c(Cl)c3)ncc12 [Compound 362, N-(3-chloro-4-morpholinophenyl)-5-methyl-8-(piperidin-4-yloxy)quinazolin-2-amine]
- EC50 [1, 3]: < 5 µM
- IC50 ([2]; PDK1 Kinase Alpha Screen Assay): < 5 µM

SMILES: Fc1cccc(Nc2ncc3cccc(-c4ccc(NCCN5CCCC5)nc4)c3n2)c1 [Compound 1020, N-(3-fluorophenyl)-8-(6-(2-(pyrrolidin-1-yl)ethylamino)pyridin-3-yl)quinazolin-2-amine]
- EC50 [1, 4]: < 5 µM
- IC50 [2]: < 5 µM

SMILES: CC(C)N1CCC(Oc2cc(C#N)cc3cnc(Nc4ccc(N5CCOCC5)cc4)nc23)CC1 [Compound 699, 8-(1-isopropylpiperidin-4-yloxy)-2-(4-morpholinophenylamino)quinazoline-6-carbonitrile]
- EC50 [1, 3]: < 5 µM
- IC50 ([2]; PDK1 Kinase Alpha Screen Assay): < 5 µM

SMILES: FC(F)(F)c1ccc(OC2CCNCC2)c2nc(Nc3ccc(N4CCOCC4)cc3)ncc12 [Compound 384, N-(4-morpholinophenyl)-8-(piperidin-4-yloxy)-5-(trifluoromethyl)quinazolin-2-amine]
- EC50 [1, 3]: 5 to 10 µM
- IC50 ([2]; PDK1 Kinase Alpha Screen Assay): < 5 µM

SMILES: CC(C)NS(=O)(=O)c1ccc(Nc2ncc3c(Br)ccc(OC4CCN(C(C)C)CC4)c3n2)cc1 [Compound 357, 4-(5-bromo-8-(1-isopropylpiperidin-4-yloxy)quinazolin-2-ylamino)-N-isopropylbenzenesulfonamide]
- EC50 [1, 3]: < 5 µM
- IC50 ([2]; PDK1 Kinase Alpha Screen Assay): < 5 µM

SMILES: O=C(NC1CCCC1)c1ccc(Nc2ncc3cccc(OC4CCNCC4)c3n2)cc1F [Compound 495, N-cyclopentyl-2-fluoro-4-(8-(piperidin-4-yloxy)quinazolin-2-ylamino)benzamide]
- EC50 [1, 3]: < 5 µM
- IC50 ([2]; PDK1 Kinase Alpha Screen Assay): < 5 µM

SMILES: NC1CCN(c2ccc(Cl)c3cnc(Nc4ccc(C(=O)N5CCOCC5)cc4)nc23)CC1 [Compound 694, (4-(8-(4-aminopiperidin-1-yl)-5-chloroquinazolin-2-ylamino)phenyl)(morpholino)methanone]
- EC50 [1, 3]: < 5 µM
- IC50 ([2]; PDK1 Kinase Alpha Screen Assay): < 5 µM

SMILES: O=C(O)c1cc(Nc2ncc3cccc(OC4CCNCC4)c3n2)ccc1F [Compound 472, 2-fluoro-5-(8-(piperidin-4-yloxy)quinazolin-2-ylamino)benzoic acid]
- EC50 [1, 3]: 5 to 10 µM
- IC50 ([2]; PDK1 Kinase Alpha Screen Assay): < 5 µM

SMILES: CC(=O)Nc1cccc(Nc2ncc3cccc(-c4ccc(N5CCN(C)CC5)nc4)c3n2)c1 [Compound 442, N-(3-(8-(6-(4-methylpiperazin-1-yl)pyridin-3-yl)quinazolin-2-ylamino)phenyl)acetamide]
- EC50 [1, 3]: < 5 µM
- IC50 ([2]; PDK1 Kinase Alpha Screen Assay): < 5 µM

SMILES: CC(C)N1CCC(Oc2cc(-c3nccs3)cc3cnc(Nc4ccc(N5CCOCC5)cc4)nc23)CC1 [Compound 553, 8-(1-isopropylpiperidin-4-yloxy)-N-(4-morpholinophenyl)-6-(thiazol-2-yl)quinazolin-2-amine]
- EC50 [1, 3]: < 5 µM
- IC50 ([2]; PDK1 Kinase Alpha Screen Assay): < 5 µM

SMILES: c1cc(OC2CCNCC2)c2nc(Nc3ccc(N4CCOCC4)nc3)ncc2c1 [Compound 470, N-(6-morpholinopyridin-3-yl)-8-(piperidin-4-yloxy)quinazolin-2-amine]
- EC50 [1, 3]: < 5 µM
- IC50 ([2]; PDK1 Kinase Alpha Screen Assay): < 5 µM

SMILES: Fc1ccc(Nc2ncc3cccc(OC4CCNCC4)c3n2)cc1 [Compound 335]
- EC50 [1, 3]: < 5 µM
- IC50 ([2]; PDK1 Kinase Alpha Screen Assay): < 5 µM

SMILES: CC(C)NC(=O)c1ccc(Nc2ncc3ccc(OC4CCN(C(C)C)CC4)cc3n2)cc1 [Compound 329, N-isopropyl-4-(7-(1-isopropylpiperidin-4-yloxy)quinazolin-2-ylamino)benzamide]
- EC50 [1, 3]: < 5 µM
- IC50 ([2]; PDK1 Kinase Alpha Screen Assay): < 5 µM

SMILES: CC(C)NC(=O)c1ccc(Nc2ncc3cc(C4CC4)c(OC4CCN(C(C)C)CC4)cc3n2)cc1 [Compound 637, 4-(6-cyclopropyl-7-(1-isoproylpiperidin-4-yloxy)quinazolin-2-ylamino)-N-isopropylbenzamide]
- EC50 [1, 3]: < 5 µM
- IC50 ([2]; PDK1 Kinase Alpha Screen Assay): < 5 µM

SMILES: NS(=O)(=O)c1ccc(Nc2ncc3cccc(-c4cncc(C(=O)N5CCNC(=O)C5)c4)c3n2)cc1 [Compound 983, 4-(8-(5-(3-oxopiperazine-1-carbonyl)pyridin-3-yl)quinazolin-2-ylamino)benzenesulfonamide]
- EC50 [1, 4]: 5 to 10 µM
- IC50 [2]: < 5 µM
